Read-outs that look alike come from different tables or passages of the source. No end group written: not given here.
Experiments:
Test in all cases: biochemical
Type in all cases: binding
HLA-DR DRB1*1101 (DR11) = HLA-DR DRB1*1101 (DR11) (Homo sapiens, UniProt P01903+P01911, A100R/A169T/A87E/I96F/K41T/L162R/M171V/P40S/Q125H/Q178H/Q39Y/Q99D/R42S/S66Y/T262R/V115G/W38E); conditions: DRB1 *1101
HLA-DR DRB1*0401 (DR4) = HLA-DR DRB1*0401 (DR4) (Homo sapiens, UniProt P01903+P01911, A100K/A169T/F76Y/I96L/K127E/L162R/M171V/N62H/P40V/Q125Y/R42H/S133A/S149N/S66Y/V115G/V209L/W38E); conditions: DRB1 *0401
HLA-DR DRB1*0901 (DR9) = HLA-DR DRB1*0901 (DR9) (Homo sapiens, UniProt P01903+P01911, A100R/A103E/D57H/D86V/F55Y/F60I/F76Y/I96F/K127E/L162R/M171V/P40D/Q125H/Q99R/R33Q/R42F/S133A/S66N/T210M/V115G/W38K/Y107V/Y59G/Y89S); conditions: DRB1 *0901
HLA-DR DRB4*0101 (DR53) = HLA-DR DRB4*0101 (DR53) (Homo sapiens, UniProt P01903+P13762, G164S); conditions: DRB4 *0101
HLA-DR DRB5*0101 (DR51) = HLA-DR DRB5*0101 (DR51) (Homo sapiens, UniProt P01903+Q30154); conditions: DRB5 *0101
HLA-DR DRB1*0701 (DR7) = HLA-DR DRB1*0701 (DR7) (Homo sapiens, UniProt P01903+P01911, A100R/A102G/A103Q/D57E/D86V/E43K/F76Y/K127E/L162R/M171V/P40G/Q125H/Q99D/R33Q/R42Y/R54Q/S133A/S66F/T210M/V115G/Y107V/Y59L/Y89S); conditions: DRB1 *0701
HLA-DR DRB1*1302 (DR13) = HLA-DR DRB1*1302 (DR13) (Homo sapiens, UniProt P01903+P01911, A100E/A169T/K41T/L162R/M171V/P40S/Q125H/Q178H/Q39Y/Q99D/R42S/S66N/T262R/V115G/W38E/Y61H); conditions: DRBI *1302
Chain of HLA-DR DRB1*1302 (DR13) (P01903 26-254 limits assumed, other chains not shown): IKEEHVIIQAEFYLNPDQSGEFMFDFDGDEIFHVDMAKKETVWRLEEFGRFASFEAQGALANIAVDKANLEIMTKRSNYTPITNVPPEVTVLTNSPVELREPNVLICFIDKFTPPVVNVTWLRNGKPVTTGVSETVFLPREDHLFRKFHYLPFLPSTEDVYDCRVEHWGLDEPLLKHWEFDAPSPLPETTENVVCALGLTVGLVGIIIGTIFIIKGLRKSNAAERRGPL

HLA-DR DRB1*1501 (DR15) = HLA-DR DRB1*1501 (DR15) (Homo sapiens, UniProt P01903+P01911); conditions: DRBI *1501
HLA-DR DRB1*0301 (DR3) = HLA-DR DRB1*0301 (DR3) (Homo sapiens, UniProt P01903+P01911, A100K/A102G/A103R/A169T/F55Y/I96L/K41T/L162R/M171V/P40S/Q125H/Q178H/Q39Y/R42S/S66N/T106N/T262R/W38E/Y61H)
Chain of HLA-DR DRB1*0301 (DR3) (P01903 26-254 limits assumed, other chains not shown): as above

HLA-DR DRB1*0101 (DR1) = HLA-DR DRB1*0101 (DR1) (Homo sapiens, UniProt P01903+P01911, A100R/D57E/F55L/F60I/F76Y/I96L/L162R/M171V/P40L/Q125E/R42F/V115G/Y59C)
HLA-DR DRB1*0405 (DR4) = HLA-DR DRB1*0405 (DR4) (Homo sapiens, UniProt P01903+P01911, A100R/A169T/D86S/F76Y/I96L/K127E/L162R/M171V/N62H/P40V/Q125Y/R42H/S133A/S149N/S66Y/V115G/V209L/W38E)
HLA-DR DRB1*0802 (DR8) = HLA-DR DRB1*0802 (DR8) (Homo sapiens, UniProt P01903+P01911, A100R/A103L/A169T/F76Y/H45Y/I96F/K41T/L162R/M171V/P40S/Q125H/Q178H/Q39Y/Q99D/R218S/R42G/S66Y/V115G/W38E)

Chain of HLA-DR DRB1*1101 (DR11) (P01903 26-254 limits assumed, other chains not shown): as above

| Compound | IC50 (HLA-DR DRB1*1101 (DR11)) [µM] | IC50 (HLA-DR DRB1*0401 (DR4)) [µM] | IC50 (HLA-DR DRB1*0901 (DR9)) [µM] | IC50 (HLA-DR DRB4*0101 (DR53)) [µM] | IC50 (HLA-DR DRB5*0101 (DR51)) [µM] | IC50 (HLA-DR DRB1*0701 (DR7)) [µM] | IC50 (HLA-DR DRB1*1302 (DR13)) [µM] | IC50 (HLA-DR DRB1*1501 (DR15)) [µM] | IC50 (HLA-DR DRB1*0301 (DR3)) [µM] | IC50 (HLA-DR DRB1*0101 (DR1); DRB1 *0101) [µM] | IC50 (HLA-DR DRB1*0405 (DR4); DRB1 *0405) [µM] | IC50 (HLA-DR DRB1*0802 (DR8)) [µM] | IC50 (HLA-DR DRB1*0802 (DR8); read-out: DRB1 *0802) [µM] | IC50 (HLA-DR DRB1*0301 (DR3); read-out: DRB1 *0301) [µM] | IC50 (HLA-DR DRB1*0101 (DR1); read-out: DRB1 *0101) [µM] | IC50 (HLA-DR DRB1*0405 (DR4); read-out: DRB1 *0405) [µM] |
| --- | --- | --- | --- | --- | --- | --- | --- | --- | --- | --- | --- | --- | --- | --- | --- | --- |
| CC(C)C[C@H](NC(=O)[C@H](C)NC(=O)[C@H](Cc1ccccc1)NC(=O)[C@@H](N)[C@@H](C)O)C(=O)N[C@@H](Cc1c[nH]c2ccccc12)C(=O)N[C@@H](CCCNC(=N)N)C(=O)N[C@H](C(=O)N[C@@H](CO)C(=O)N[C@@H](C)C(=O)N[C@@H](CCC(=O)O)C(=O)N[C@@H](CCC(=O)O)C(=O)N[C@@H](Cc1ccc(O)cc1)C(=O)O)C(C)C | 0.342 | 0.342 | 0.517 | > 6.61 | 25.5 | 0.927 | > 2.57 | > 12.7 | 88.3 | > 5.28 | 0.072 | – | – | – | – | – |
| WAGLLLDTRTLEVQS | 21 | 0.049 | – | – | > 102 | – | 0.092 | 3.47 | 0.022 | 2.02 | 1.24 | > 61.2 | – | – | – | – |
| MKHILYISFYFILVN | – | 0.189 | – | – | > 9.52 | – | – | – | – | 5.89 | 3.38 | 15.6 | – | – | – | – |
| YGRILHYLKAKEDSH | – | 2.34 | – | – | – | 0.9 | – | – | 42.4 | 0.03 | 0.023 | 0.704 | – | – | – | – |
| DFSYLQDSDPDSFQD | – | 0.264 | > 107 | – | > 40 | > 250 | > 35 | > 91 | – | – | > 127 | > 61.2 | – | – | – | – |
| PVIKNSIKLRL | 2.77 | 34.2 | 2.85 | 0.198 | 1.04 | 4.09 | 0.077 | 2.58 | 0.198 | 1.55 | 278 | – | – | – | – | – |
| ALIYNYGLLYCFRKD | – | – | – | – | – | – | – | – | – | – | – | – | > 33.3 | 9.82 | 0.137 | 0.551 |
| CYSLYGTTLEQQYNK | > 14.7 | – | – | 0.189 | > 10.7 | > 9.96 | > 13.7 | 5.06 | – | 1.09 | 0.071 | 26 | – | – | – | – |
| CC[C@H](C)[C@H](NC(=O)CNC(=O)[C@H](CC(C)C)NC(=O)CNC(=O)[C@H](CCCCN)NC(=O)[C@@H](NC(=O)[C@@H](NC(=O)[C@H](Cc1ccccc1)NC(=O)[C@H](CS)NC(=O)[C@@H](NC(=O)[C@@H](N)CCC(N)=O)C(C)C)[C@@H](C)CC)[C@@H](C)O)C(=O)N[C@@H](CO)C(=O)N[C@@H](Cc1ccc(O)cc1)C(=O)NCC(=O)N[C@@H](CCCNC(=N)N)C(=O)O | 0.031 | – | – | 0.876 | 3.95 | 0.091 | 0.092 | 3.55 | 167 | – | 0.295 | 0.041 | – | – | – | – |
| LKLVYRDDFPYAVCR | 0.698 | 0.123 | 18.7 | 3.83 | 9.16 | 29 | 0.699 | 1.88 | 0.237 | 0.778 | 0.83 | – | – | – | – | – |
| GIVEQTTTSITSLYQ | – | 0.121 | – | – | – | 0.788 | – | – | 107 | 6.35 | 0.818 | > 54.4 | – | – | – | – |
